These are literature values, as cited in patent US20210379103A1, “ANISOTROPIC NANOPARTICLE COMPOSITIONS AND METHODS” (Buckyol Limited, priority 2017, published 2021).

For this series the following is noted: C60(OH)8 with OH-groups forming a compact island.

octa-hydroxylated fullerene [C60(OH)8]: the hydration energy is −224 kJ per mol.
